Data published in ChEMBL document CHEMBL5303711, “ECBD screening data for assay EOS300108” (2023).
Activity calls are given as the source filed them. No rule for the calls is given here.

experiment: Cytotoxicity activity against human HepG2 cells assessed by CellTiter-Glo luminescent cell viability assay.; assay type: toxicity, cell-based; set-up: assay stage confirmatory assay, source tissue liver; conditions: HepG2 cells, read-out: IC50 relative

| SMILES | CC50 |
| --- | --- |
| CN(Cc1ccccc1)C1=CC(=[N+]2CCCC2)CC(C)(C)C1 | 3.3 µM (active) |
| c1coc(CNc2ncnc3ccccc23)c1 | 9.5 µM (inactive) |
| CNc1nc(N2CCN(C)CC2)nc2ccccc12 | 5.5 µM (active) |
| O=C(Nc1ccc(I)cc1)c1ccc(CN2CCOCC2)cc1 | 7.7 µM (inactive) |
| O=C(Cc1ccsc1)Nc1nc(-c2ccccn2)cs1 | 3.2 µM (active) |
| Cc1noc(C)c1CC(=O)Nc1nc(-c2ccc(S(=O)(=O)N(C)C)cc2)cs1 | 4.3 µM (active) |
| COc1ccc(Nc2ssc(=O)c2Cl)cc1OC | 13.8 µM (active) |
| COCCn1cc(C(=O)Nc2nc3ccccc3[nH]2)c2ccccc21 | 11.7 µM (inactive) |
| COc1ccc(-n2ccc(C(=O)Nc3cnccc3C(N)=O)n2)cc1 | 5.4 µM (active) |
| COc1ccc(CN(Cc2cn3c(C)cccc3n2)C2CC2)c(OC)c1 | 9.7 µM (active) |
| CC(C)Cn1cnc(S(=O)(=O)N2CCC[C@@H]2COc2ccc(F)cc2)c1 | 8.4 µM (active) |
| Cc1nc2ccccc2nc1CSCCCS(=O)(=O)C(C)C | 0.9 µM (active) |
| c1ccc(-n2ccc(CNc3ncnc4c3ncn4C3CC3)n2)cc1 | 9.8 µM (active) |
| C[C@@H]1Oc2ccccc2N(CC(=O)Nc2nc(-c3ccccn3)cs2)C1=O | 3.3 µM (active) |
| O[C@H]1C[C@@H](c2cc(N3CCC(Oc4ccccc4Cl)CC3)ncn2)C1 | 5.6 µM (active) |
| CCOc1cccc(N2CCN(c3ncnc4c(F)cccc34)CC2)n1 | 8.3 µM (active) |
| N#Cc1ccc(CN2CCN(C(=O)c3ccc(-n4cccn4)cc3)CC2)cc1 | 8.6 µM (active) |
| COc1ccc2cc(CN3CCC(n4ccnc4)CC3)ccc2c1 | 11.5 µM (active) |
| C#CCOC1CCN(C(=O)c2ccc(F)c(Br)c2)CC1 | 8.6 µM (active) |
| COc1ccc(OCCCN2CCN(S(=O)(=O)c3ccc(S(N)(=O)=O)cc3)CC2)cc1 | 15.9 µM (inactive) |
| CN(C)c1ccnc(NCCc2cc(F)cc3c2OCOC3)n1 | 10.2 µM (active) |
| CC(=O)N1N=C(c2ccc(Br)cc2)C[C@H]1c1ccc(O)cc1 | 20.2 µM (inactive) |
| CCc1ccc([N+]2=C3SCCCN3C[C@]2(O)c2ccc(OC)c(OC)c2)cc1 | 10.9 µM (active) |
| CCN(Cc1nc2cc(OC)c(OC)cc2c(=O)[nH]1)C(=O)c1ccc2c(c1)OCO2 | 12.7 µM (active) |
| c1ccc(-c2nc3n(n2)Cc2ccccc2-3)cc1 | 2.7 µM (active) |
| Cc1occc1C(=O)NC1CCN(CCC(=O)c2ccccc2)CC1 | 9.5 µM (active) |

| SMILES | CC50 |
| --- | --- |
| c1nc(N2CCN(Cc3ccc4c(c3)OCO4)CC2)c2ccsc2n1 | 5.1 µM (active) |
| Cc1ccnn1-c1ccc(C(=O)Nc2cc(N(C)C)ccn2)cc1 | 12.1 µM (active) |
| O=C(c1c[nH]c(-c2ccccn2)c1)c1ccccc1O | 12.6 µM (inactive) |
| O=C(Nc1ccc2c(c1)S(=O)(=O)C=C2)c1ncoc1-c1ccco1 | 10.9 µM (inactive) |
| C[C@H](Nc1nc(N)nc2ccccc12)c1ccccc1 | 3.9 µM (active) |
| NC(=O)c1cc(NC(=O)CCSc2ccccc2Br)[nH]n1 | 13.6 µM (active) |
| O=C(Nc1nc(-c2ccccc2)cs1)C1CCN(S(=O)(=O)c2cccnc2)CC1 | 6 µM (active) |
| CCOc1ncccc1C(=O)Nc1nc2cc(C#N)ccc2n1CC | 5.9 µM (active) |
| Cc1cc(C)n(-c2ccc(C(=O)Nc3ncccc3O)cc2)n1 | 8.8 µM (active) |
| COc1ccc(OC[C@@H](O)CN(C)Cc2ccc(C)o2)c(C(C)(C)C)c1 | 21.3 µM (inactive) |
| Cc1cc2sc(NC(=O)NCCNS(C)(=O)=O)nc2cc1F | 2.3 µM (active) |
| N#Cc1c(N)[nH]c2cc(Br)ccc12 | 18 µM (inactive) |
| CC(C)(C)NC(=O)NC(=O)CNc1ccccc1C(=O)Nc1ccc(F)cc1 | 50 µM (inactive) |
| CC(C)n1ncc2cc(NC(=O)c3ccc(=O)n(Cc4ccccc4)n3)cnc21 | 9.2 µM (active) |
| CCc1nccn1[C@H]1CCCN(CCOc2ccccc2F)C1 | 9.3 µM (active) |
| C[C@@H](c1ccccc1F)N(Cn1ncc(Cl)c(Cl)c1=O)C1CC1 | 11.4 µM (active) |
| COc1ccc(C(=O)N(C)C)cc1NC(=O)c1ccc2ccccc2n1 | 8.9 µM (active) |
| CC(C)[C@H](NC1CCN(C(=O)c2ccco2)CC1)c1ccccc1 | 10.6 µM (inactive) |
| O=C1CN2C(=C1c1nc3ccccc3s1)NC(=O)c1sccc12 | 3.7 µM (active) |
| ON=C1C[C@@H](c2ccc(Cl)cc2)Oc2ccccc21 | 2.7 µM (active) |
| CCOc1ccc(S(=O)(=O)NCC2(C)CCNCC2)c2ccccc12 | 10 µM (active) |
| CCN(Cc1ccc(OC)cc1)Cc1nc2c(F)cccc2[nH]1 | 10.2 µM (active) |
| Cc1cc([C@H]2CCCN(CC(=O)Nc3nccs3)C2)n[nH]1 | 6.6 µM (inactive) |
| CN(C)S(=O)(=O)N1CCN(C(=O)c2cnn(-c3ccc(Cl)cc3)c2C(F)(F)F)CC1 | 5.2 µM (active) |
| COc1cc2c(cc1F)CN(Cc1cnc3ccccn13)CC2 | 2 µM (active) |
| COc1ccc(C(=O)N2CCN(c3ncnc4cccc(F)c34)CC2)cc1 | 9.4 µM (active) |

| SMILES | CC50 |
| --- | --- |
| Cc1cc(NC(=O)N2CC=C(c3c[nH]c4ncccc34)CC2)no1 | 9.2 µM (inactive) |
| Cc1ccc([C@H](CC(=O)c2ccco2)SCCO)cc1 | 11.4 µM (active) |
| COc1ccc([C@@H]2CCCN2c2cnn(C(C)(C)C)c(=O)c2Cl)cc1 | 11.1 µM (active) |
| N#Cc1ccc(NC(=O)c2cccc3ncccc23)cc1 | 10.8 µM (inactive) |
| C[C@H](O)CN1CCC(CNCc2ccc(Cl)cc2)CC1 | 7.6 µM (active) |
| CNc1ccc(Br)cc1N | 4.1 µM (active) |
| CC(C)[C@H](NCC(=O)N1CCN(c2ccccn2)CC1)c1ccc(Cl)cc1 | 8 µM (active) |
| CC(C)n1ncc2cc(NC(=O)c3cc4ccccc4cc3O)cnc21 | 10 µM (inactive) |
| Cc1cc(C)cc(OCCN(C)[C@@H](C)c2nc(N)nc(N(C)C)n2)c1 | 9 µM (active) |
| COc1ccc(-c2csc3[nH]c(=O)cc(O)c23)cc1 | 3.7 µM (active) |
| C[C@H](O)CN1CCC(CNCc2cccc(Br)c2)CC1 | 9.4 µM (active) |
| O=C(c1cccc(S(=O)(=O)N2CCOCC2)c1)N1CCN(c2nc3ccccc3s2)CC1 | 5 µM (active) |
| O=C(Nc1ccc(-c2cn3ccsc3n2)cc1)c1cccc(CO)c1 | 6.3 µM (active) |
| Cc1cc(NCCCN2CCC(C)CC2)c2ccccc2n1 | 6.5 µM (active) |
| Cc1nc(-c2ccccc2)oc1C(=O)Nc1ccc(N2CCN(C)CC2)cn1 | 12.9 µM (active) |
| Cn1cc(S(=O)(=O)N2CCC[C@@H]2COc2ccc(F)cc2)cc1C(N)=O | 0.6 µM (active) |
| Cc1ccc(NC(=O)NC[C@@H](C(C)C)N2CCN(C)CC2)cc1Cl | 11.3 µM (active) |
| CC(C)(CN)c1cccc(-c2cccc(CN)c2)c1 | 12.3 µM (active) |
| Cc1ccccc1Oc1ccnc(CNC(=O)c2nccn2C)c1 | 1.1 µM (active) |
| Cn1cc(S(=O)(=O)N2CCCC2)cc1C(=O)Nc1nc(-c2ccccn2)cs1 | 6.4 µM (inactive) |
| CCc1cc(N2CCC(NC(=O)N3CCN(c4cccnn4)CC3)CC2)ncn1 | 16.3 µM (inactive) |
| Nc1ccc2cc3ccc(N)cc3nc2c1 | 3.2 µM (active) |
| CON(C)C(=O)CSc1nc2sc(C)c(C)c2c(=O)n1Cc1ccccn1 | 0.6 µM (active) |
| CN(C)c1cc(CNCc2cccc(OCc3ccccn3)c2)ccn1 | 15.3 µM (inactive) |
| CC1(C)CC[C@H](CO)N(CCS(=O)(=O)c2ccc(C#N)cc2)C1 | 11.7 µM (active) |
| COc1ccc(CNc2nccn(-c3ccc4c(c3)OCO4)c2=O)cc1OC | 9.1 µM (inactive) |

| SMILES | CC50 |
| --- | --- |
| Cc1nn(-c2ccccc2)nc1C(=O)Nc1ccc(S(=O)(=O)NCCCN2CCOCC2)cc1 | 10.3 µM (active) |
| CC(=O)c1ccc(NC(=O)c2cccc3cccnc23)cc1 | 0.9 µM (active) |
| CN(C(=O)Cn1c(S(C)(=O)=O)nc2ccccc21)c1ccccc1 | 5.1 µM (inactive) |
| O=C(Nc1ccnc2ccnn12)c1ccc2ccccc2n1 | 1.4 µM (active) |
| Cc1csc(CCNc2cc(N3CCC[C@@H]3CO)ncn2)n1 | 2.4 µM (active) |
| Cc1cc(C(=O)Nc2cc(Cl)ccc2N2CCN(C)CC2)no1 | 11.9 µM (active) |
| CCCOc1cc(S(=O)(=O)Nc2cccc(O)c2)ccc1Cl | 12 µM (active) |
| CN(C)C(=O)CO[C@@H]1COCC[C@H]1NC(=O)c1cn(C)c2ccccc12 | 6.3 µM (active) |
| CCN1CCCCC1CNCc1ccc2cc(O)ccc2c1 (centres undefined) | 11.5 µM (active) |
| CCOc1ccc(OCCN2CCC[C@H](n3ccnc3CC)C2)cc1 | 8.4 µM (active) |
| Cn1cc(-c2nc(C(=O)Nc3cccnc3-n3cncn3)cs2)cn1 | 2 µM (active) |
| OCC1CCCN(CCNCc2ccc(Cl)c(Cl)c2)C1 (centres undefined) | 5.7 µM (active) |
| Cc1cc(NC(=O)c2cnn(-c3ccccc3)n2)cc(N2CCN(C)CC2)c1 | 6.1 µM (active) |
| CCn1c(Cn2ncc(Cl)c(Cl)c2=O)nc2cc(F)ccc21 | 3 µM (active) |
| CCn1c(NC(=O)c2ccc(=O)n(CCOc3ccccc3)n2)nc2ccccc21 | 4.6 µM (active) |
| CN(c1ccccc1)S(=O)(=O)c1ccc(C(=O)N2CCN(CCOc3ccccc3)CC2)cc1 | 9.1 µM (active) |
| O=C(Nc1nc2cc(C(F)(F)F)ccc2[nH]1)C1=COCCO1 | 7.1 µM (active) |
| CCc1nccn1[C@H]1CCCN(CCOc2ccc(F)cc2)C1 | 6 µM (active) |
| CC(C)CCn1c(SCC(=O)NCCN(C(C)C)C(C)C)nc2ccccc2c1=O | 12.5 µM (active) |
| Cc1c(C(=O)Nc2ncccc2O)oc2ccccc12 | 1.7 µM (active) |
| Cn1nc(C(=O)Nc2ccc(Oc3ccc(F)cc3)cn2)ccc1=O | 6.7 µM (active) |
| CCc1nnsc1C(=O)Nc1cc(-c2cccs2)n[nH]1 | 4.8 µM (active) |
| CN(c1ccc(-c2csc(NC(=O)CCc3ccco3)n2)cc1)S(C)(=O)=O | 6 µM (active) |
| CCN1CCN(c2ccc(C(=O)Nc3nc(-c4cccnc4)cs3)cc2)CC1 | 5.8 µM (active) |
| COc1ccc(OC2CCN(CC[C@H]3CCCCN3C)CC2)cc1 | 11.2 µM (inactive) |
| Cc1cc(N2CCC[C@H](c3c[nH]c4ncccc34)C2)n2ncnc2n1 | 8.5 µM (active) |
